Measurements as given in ChEMBL document CHEMBL1201862, “PubChem BioAssay data set” (2004).
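Following 48 hours of exposure in 96-well plates, responses at five concentrations were used to interpolate endpoints linearly. GI50 = concentration required for 50% inhibition of growth.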 Active and inactive are the calls of the source. Rule as the data show it: active = GI50 up to about 1.1 µM and inactive = higher.

Key:
Test in all cases: NCI-60 cell line screen, 48 h
786-0 = tested on: 786-0
A498 = tested on: A498
A549 = tested on: A549
ACHN = tested on: ACHN
CAKI-1 = tested on: CAKI-1
CCRF-CEM = tested on: CCRF-CEM
COLO 205 = tested on: COLO 205
DMS-114 = tested on: DMS-114
DMS-273 = tested on: DMS-273
EKVX = tested on: EKVX
HCC 2998 = tested on: HCC 2998
HCT-116 = tested on: HCT-116
HCT-15 = tested on: HCT-15
HL-60 = tested on: HL-60
HOP-18 = tested on: HOP-18
HOP-62 = tested on: HOP-62
HOP-92 = tested on: HOP-92
HT-29 = tested on: HT-29
IGROV-1 = tested on: IGROV-1
K562 = tested on: K562
KM-20L2 = tested on: KM-20L2
KM12 = tested on: KM12
LOX IMVI = tested on: LOX IMVI
LXFL 529 = tested on: LXFL 529
M14 = tested on: M14
M19-MEL = tested on: M19-MEL
MOLT-4 = tested on: MOLT-4
Malme-3M = tested on: Malme-3M
NCI-H226 = tested on: NCI-H226
NCI-H23 = tested on: NCI-H23
NCI-H460 = tested on: NCI-H460
NCI-H522 = tested on: NCI-H522
OVCAR-3 = tested on: OVCAR-3
OVCAR-5 = tested on: OVCAR-5
OVCAR-8 = tested on: OVCAR-8
RPMI-8226 = tested on: RPMI-8226
RXF 393 = tested on: RXF 393
RXF 631 = tested on: RXF 631
SF-268 = tested on: SF-268
SF-295 = tested on: SF-295
SF-539 = tested on: SF-539
SK-MEL-28 = tested on: SK-MEL-28
SK-MEL-2 = tested on: SK-MEL-2
SK-MEL-5 = tested on: SK-MEL-5
SK-OV-3 = tested on: SK-OV-3
SN12C = tested on: SN12C
SNB-19 = tested on: SNB-19
SNB-75 = tested on: SNB-75
SNB-78 = tested on: SNB-78
SR = tested on: SR
SW-620 = tested on: SW-620
TK-10 = tested on: TK-10
U-251 = tested on: U-251
UACC-257 = tested on: UACC-257
UACC-62 = tested on: UACC-62
UO-31 = tested on: UO-31
XF498 = tested on: XF498
DLD-1 = tested on: DLD-1
OVCAR-4 = tested on: OVCAR-4

Compound: Cc1ccc(NC(=O)CC/C(CC(=O)C(C)(C)C)=N/Nc2nnc(C)n2N)cc1C
- GI50 (786-0): > 100 µM (inactive)
- GI50 (A498): > 100 µM (inactive)
- GI50 (A549): > 100 µM (inactive)
- GI50 (ACHN): > 100 µM (inactive)
- GI50 (CAKI-1): > 100 µM (inactive)
- GI50 (CCRF-CEM): 65 µM (inactive)
- GI50 (COLO 205): > 100 µM (inactive)
- GI50 (DMS-114): 62.2 µM (inactive)
- GI50 (DMS-273): 95.1 µM (inactive)
- GI50 (EKVX): 30.8 µM (inactive)
- GI50 (HCC 2998): > 100 µM (inactive)
- GI50 (HCT-116): > 100 µM (inactive)
- GI50 (HCT-15): > 100 µM
- GI50 (HL-60): > 100 µM (inactive)
- GI50 (HOP-18): > 100 µM (inactive)
- GI50 (HOP-62): > 100 µM (inactive)
- GI50 (HOP-92): > 100 µM (inactive)
- GI50 (HT-29): > 100 µM (inactive)
- GI50 (IGROV-1): > 100 µM (inactive)
- GI50 (K562): 43 µM (inactive)
- GI50 (KM-20L2): > 100 µM (inactive)
- GI50 (KM12): 84.9 µM (inactive)
- GI50 (LOX IMVI): > 100 µM (inactive)
- GI50 (LXFL 529): > 100 µM (inactive)
- GI50 (M14): > 100 µM (inactive)
- GI50 (M19-MEL): > 100 µM (inactive)
- GI50 (MOLT-4): 66.5 µM (inactive)
- GI50 (Malme-3M): > 100 µM (inactive)
- GI50 (NCI-H226): > 100 µM (inactive)
- GI50 (NCI-H23): > 100 µM (inactive)
- GI50 (NCI-H460): > 100 µM (inactive)
- GI50 (NCI-H522): > 100 µM (inactive)
- GI50 (OVCAR-3): > 100 µM (inactive)
- GI50 (OVCAR-5): > 100 µM (inactive)
- GI50 (OVCAR-8): > 100 µM (inactive)
- GI50 (RPMI-8226): > 100 µM (inactive)
- GI50 (RXF 393): > 100 µM (inactive)
- GI50 (RXF 631): > 100 µM (inactive)
- GI50 (SF-268): > 100 µM (inactive)
- GI50 (SF-295): > 100 µM (inactive)
- GI50 (SF-539): > 100 µM (inactive)
- GI50 (SK-MEL-28): > 100 µM (inactive)
- GI50 (SK-MEL-2): > 100 µM (inactive)
- GI50 (SK-MEL-5): > 100 µM (inactive)
- GI50 (SK-OV-3): > 100 µM (inactive)
- GI50 (SN12C): > 100 µM (inactive)
- GI50 (SNB-19): > 100 µM (inactive)
- GI50 (SNB-75): > 100 µM (inactive)
- GI50 (SNB-78): > 100 µM (inactive)
- GI50 (SR): 94.8 µM (inactive)
- GI50 (SW-620): > 100 µM (inactive)
- GI50 (TK-10): > 100 µM (inactive)
- GI50 (U-251): > 100 µM (inactive)
- GI50 (UACC-257): > 100 µM (inactive)
- GI50 (UACC-62): > 100 µM (inactive)
- GI50 (UO-31): > 100 µM (inactive)
- GI50 (XF498): > 100 µM (inactive)

Compound: COc1ccc(/C=C2\C(=O)N(NC(C)=O)c3ccccc32)cc1
- GI50 (786-0): > 100 µM (inactive)
- GI50 (A498): > 100 µM (inactive)
- GI50 (A549): 58.9 µM (inactive)
- GI50 (ACHN): > 100 µM (inactive)
- GI50 (CAKI-1): 43.5 µM (inactive)
- GI50 (CCRF-CEM): 49.7 µM (inactive)
- GI50 (COLO 205): > 100 µM (inactive)
- GI50 (DLD-1): 68.4 µM (inactive)
- GI50 (DMS-114): 77.3 µM (inactive)
- GI50 (DMS-273): 99.1 µM (inactive)
- GI50 (EKVX): 48.8 µM (inactive)
- GI50 (HCC 2998): 71.6 µM (inactive)
- GI50 (HCT-116): 63.4 µM (inactive)
- GI50 (HCT-15): 67.9 µM
- GI50 (HOP-18): > 100 µM (inactive)
- GI50 (HOP-62): 97.3 µM (inactive)
- GI50 (HOP-92): > 100 µM (inactive)
- GI50 (HT-29): 42 µM (inactive)
- GI50 (IGROV-1): > 100 µM (inactive)
- GI50 (K562): 28.6 µM (inactive)
- GI50 (KM-20L2): > 100 µM (inactive)
- GI50 (KM12): 87.9 µM (inactive)
- GI50 (LOX IMVI): > 100 µM (inactive)
- GI50 (M14): > 100 µM (inactive)
- GI50 (M19-MEL): > 100 µM (inactive)
- GI50 (MOLT-4): 40.9 µM (inactive)
- GI50 (Malme-3M): > 100 µM (inactive)
- GI50 (NCI-H226): > 100 µM (inactive)
- GI50 (NCI-H23): > 100 µM (inactive)
- GI50 (NCI-H460): > 100 µM (inactive)
- GI50 (OVCAR-3): 56.4 µM (inactive)
- GI50 (OVCAR-4): > 100 µM (inactive)
- GI50 (OVCAR-5): > 100 µM (inactive)
- GI50 (OVCAR-8): 48.1 µM (inactive)
- GI50 (RPMI-8226): 37.4 µM (inactive)
- GI50 (RXF 631): > 100 µM (inactive)
- GI50 (SF-268): 80.4 µM (inactive)
- GI50 (SF-295): > 100 µM (inactive)
- GI50 (SF-539): > 100 µM (inactive)
- GI50 (SK-MEL-28): > 100 µM (inactive)
- GI50 (SK-MEL-2): > 100 µM (inactive)
- GI50 (SK-MEL-5): 46.2 µM (inactive)
- GI50 (SK-OV-3): > 100 µM (inactive)
- GI50 (SN12C): > 100 µM (inactive)
- GI50 (SNB-19): > 100 µM (inactive)
- GI50 (SNB-75): 33.5 µM (inactive)
- GI50 (SNB-78): > 100 µM (inactive)
- GI50 (SW-620): 95.9 µM (inactive)
- GI50 (TK-10): 46.5 µM (inactive)
- GI50 (U-251): > 100 µM (inactive)
- GI50 (UACC-257): > 100 µM (inactive)
- GI50 (UACC-62): > 100 µM (inactive)
- GI50 (UO-31): 37.4 µM (inactive)
- GI50 (XF498): > 100 µM (inactive)
